The text below walks through data of patent US6316594A, “Antimicrobial peptide isolated from parasilurus asotus and its uses” (priority 1998, dated 2001).

For data set [1], the system named is Bacillus subtilis ATCC 62037. As to the kind of experiment: MIC, microdilution in 96-well plate. In kind it is cell-based. The settings on record: overnight 37° C., 3% TSB. The source says:
(§1) All of the microorganisms used in the invention were obtained from the American Type Culture Collection (ATCC) Used were Bacillus subtilis ATCC 62037, Staphylococcus aureus ATCC 15752, Streptococcus mutans ATCC 25175, Pseudomonas putida ATCC 17426, Escherichia coli ATCC 27325, Salmonella typhimurium ATCC 15277, Seratia sp. ATCC 21074, Cryptococcus neoformans ATCC 34881, Saccharomyces cerevisiae ATCC 44774 and Candida albicans ATCC 10231.
(§2) The parasin I and its derivatives obtained in Example I were lyophilized, resuspended in water and assayed for antimicrobial activity against B. subtilis ATCC 62037. The purity of the isolated peptides was analyzed by reverse-phase HPLC and MALDI-MS (Kratos Kompact MALDI, England). The antimicrobial activity of the samples was determined during each purification step by the radial diffusion assay using B. subtilis ATCC 62037 according to the method of Lehrer et al. ((1991) J. Immunol. Methods, 137, 167-173). A 20 ml culture of B. subtilis ATCC 62037 cell in mid-logarithmic phase was washed with 10 mM sodium phosphate buffer (NAPB), pH 7.4, at […], and resuspended in 10 ml of the same buffer. A cell suspension containing 1×10^6 bacterial colony forming units (CFUs) was added to 6 ml of an underlayer agar (10 mM sodium phosphate, 1% (v/v) trypticase soy broth (TSB), 1% (w/v) agarose, pH 6.5) and this resulting mixture was poured into a Petri dish. Samples were added, at an amount of 5 μl, directly in 3-mm wells which were made on the solidified underlayer agar. After incubation for 3 hours at 37° C., the underlayer agar was covered with a nutrient-rich top agar overlay (6% (w/v) TSB, 1% (w/v) agarose) and incubated overnight at 37° C. Antimicrobial activity was determined by observing the zone of suppression of bacterial growth around the 3-mm wells. The minimal inhibitory concentrations (MICs) of the isolated peptide against the microorganisms were determined as described by Moore et al. ((1991) J. Biol. Chem., 266, 19851-19857). 100 μl microorganism suspensions (10^5 CFU/ml) in 3% (w/v) TSB were mixed with serial two-fold dilutions of the isolated peptide in a sterilized 96-well microtiter plate (Nunc, Denmark). The final concentration of the peptide ranged 0.5-200 μg/ml. The 96-well plate was incubated overnight at 37° C. and the inhibition of growth was determined by measuring the absorbance at 620 nm on a microplate reader, such as that sold by B10-Rad, U.S.A., under the brand name of Model 550. The MIC was defined as the lowest concentration of peptide that inhibited growth. In respect to the test for antimicrobial activity, 10 different microorganisms, including Gram-negative bacteria, Gram-positive bacteria and fungi were used.

The test system of data set [2] is Saccharomyces cerevisiae ATCC 44774. The data set is described as follows: MIC, microdilution in 96-well plate. In kind it is cell-based. Conditions: overnight 37° C., 3% TSB.
Text: as §1, §2

Data set [3] deals with Salmonella typhimurium ATCC 15277. As to the kind of experiment: MIC, microdilution in 96-well plate. In kind it is cell-based. Conditions: overnight 37° C., 3% TSB.
Text: as §1, §2

Data set [4] concerns Staphylococcus aureus ATCC 15752. As to the kind of experiment: MIC, microdilution in 96-well plate. In kind it is cell-based. The settings on record: overnight 37° C., 3% TSB.
Text: as §1, §2

Data set [5] concerns Escherichia coli ATCC 27325. As to the kind of experiment: MIC, microdilution in 96-well plate. In kind it is cell-based. The settings on record: overnight 37° C., 3% TSB.
Text: as §1, §2

For data set [6], the system named is Pseudomonas putida ATCC 17426. As to the kind of experiment: MIC, microdilution in 96-well plate. In kind it is cell-based. The settings on record: overnight 37° C., 3% TSB.
Text: as §1, §2

Data set [7] relates to Streptococcus mutans ATCC 25175. As to the kind of experiment: MIC, microdilution in 96-well plate. In kind it is cell-based. Conditions: overnight 37° C., 3% TSB.
Text: as §1, §2

The test system of data set [8] is Cryptococcus neoformans ATCC 34881. As to the kind of experiment: MIC, microdilution in 96-well plate. The settings on record: overnight 37° C., 3% TSB. In kind it is cell-based.
Text: as §1, §2

Another data set has as its system Serratia sp. As to the kind of experiment: MIC, microdilution in 96-well plate. Conditions: overnight 37° C., 3% TSB. In kind it is cell-based.
Text: as §1, §2

The subject of data set [9] is Candida albicans ATCC 10231. As to the kind of experiment: MIC, microdilution in 96-well plate. Conditions: overnight 37° C., 3% TSB. In kind it is cell-based.
Text: as §1, §2

The subject of a further data set is human erythrocytes. As to the kind of experiment: Hemolytic activity assay. Conditions: peptide 200 μg/ml. Here is the method:
The hemolytic activity of the antimicrobial peptide was assayed as described by Park et al. (9).

Peptide text beside a SMILES is read from it.

In the case of “K G R G K Q G G K V R A K A K (KGRGKQGGKVRAKAK) [Seq. No. 3, synthetic derivative deficient of 4 carboxyl terminal residues of parasin I]”, the MIC is 1 µg/mL in data set [1]; 2 µg/mL in data set [2]; 2 µg/mL in [3]; 2 µg/mL in data set [4]; 1 µg/mL in data set [5]; 2 µg/mL in data set [6]. Besides, the MIC in [7] was found to be 1 µg/mL; in data set [8] it was 2 µg/mL; with Serratia sp. it was 4 µg/mL; in [9] it was 4 µg/mL.

As for “K G R G K Q G G K V R A K A K T R (KGRGKQGGKVRAKAKTR) [Seq. No. 2, synthetic derivative deficient of 2 carboxyl terminal residues of parasin I]”, the MIC was determined as 0.5 µg/mL in data set [1]; 2 µg/mL in data set [2]; 1 µg/mL in data set [3]; 1 µg/mL in data set [4]; 0.5 µg/mL in data set [5]; 2 µg/mL in data set [6]. For the same molecule, the minimal inhibitory concentration (MIC) stood at 0.5 µg/mL in data set [7], 1 µg/mL in data set [8], 2 µg/mL against Serratia sp. and 1 µg/mL in data set [9].

Regarding Buforin I [reference compound], the minimal inhibitory concentration (MIC) in data set [1] is 4 µg/mL; in data set [2], 4 µg/mL; in [3], 4 µg/mL; in data set [4], 4 µg/mL; in data set [5], 8 µg/mL; in data set [6] it was 4 µg/mL. Also, the minimal inhibitory concentration (MIC) in data set [7] was determined as 8 µg/mL; in data set [8], 4 µg/mL; in the data set on Serratia sp., 8 µg/mL; in data set [9], 4 µg/mL.

`CC(C)[C@H](NC(=O)[C@H](CCCCN)NC(=O)CNC(=O)CNC(=O)[C@H](CCC(N)=O)NC(=O)[C@H](CCCCN)NC(=O)CNC(=O)[C@H](CCCNC(=N)N)NC(=O)CNC(=O)[C@@H](N)CCCCN)C(=O)N[C@@H](CCCNC(=N)N)C(=O)N[C@@H](C)C(=O)N[C@@H](CCCCN)C(=O)N[C@@H](C)C(=O)N[C@@H](CCCCN)C(=O)N[C@H](C(=O)N[C@@H](CCCNC(=N)N)C(=O)N[C@@H](CO)C(=O)N[C@@H](CO)C(=O)O)[C@@H](C)O` [Parasin I, Lys-Gly-Arg-Gly-Lys-Gln-Gly-Gly-Lys-Val-Arg-Ala-Lys-Ala-Lys-Thr-Arg-Ser-Ser] (H-KGRGKQGGKVRAKAKTRSS-OH) returned a hemolysis with human erythrocytes of 0.2%.

As for Magainin 2 [reference compound], the MIC in [1] stood at 50 µg/mL; in data set [2], 25 µg/mL; in data set [3], 25 µg/mL; in data set [4] it was 50 µg/mL; in data set [5], 100 µg/mL; in data set [6], 50 µg/mL. Also, the MIC in data set [7] stood at 100 µg/mL; in data set [8], 12 µg/mL; with Serratia sp., 50 µg/mL; in data set [9] it was 25 µg/mL.

“K G R G K Q G G K V R A K A K T R S S (KGRGKQGGKVRAKAKTRSS) [Seq. No. 1]”: the minimal inhibitory concentration (MIC) stood at 0.5 µg/mL in data set [1]; 1 µg/mL in data set [2]; 1 µg/mL in data set [3]; 1 µg/mL in data set [4]; 0.5 µg/mL in data set [5]; 2 µg/mL in data set [6]. The minimal inhibitory concentration (MIC) in data set [7] stood at 0.5 µg/mL; in data set [8] it was 1 µg/mL; against Serratia sp., 4 µg/mL; in data set [9], 1 µg/mL.
